Measured values reported in patent US12077503B2, “Substituted cyclic amides and their use as herbicides” (FMC CORPORATION, priority 2015, dated 2024).

Columns and labels:
Type in all cases: in vivo
[1] = test system: giant foxtail (Setaria faberi); assay: Test G Post-Emergence Protocol; conditions: Setaria faberi, post-emergence, 312 h; for pest or weed control at 15.625 g/ha: 15.625 g ai/ha, evaluated after 13 days (100=total damage to plant; 0=no damage to plant), read-out: Foxtail, Giant damage rating; for pest or weed control at 62.5 g/ha: 62.5 g ai/ha, read-out: Foxtail, Giant damage rating (100=total damage to plant; 0=no damage to plant); for pest or weed control at 62.5 g/ha / pest or weed control at 250 g/ha: evaluated after 13 days; for pest or weed control at 250 g/ha: 250 g ai/ha, read-out: damage to plant, Foxtail, Giant (100=total damage to plant; 0=no damage to plant)
Description: (§1) Seeds of corn (Zea mays), giant foxtail (Setaria faberi), barnyardgrass (Echinochloa crus-galli), ivy-leaved morning glory (Ipomoea hederacea), redroot pigweed (Amaranthus retroflexus) and velvetleaf (Abutilon theophrasti) were sown in standard soil in pots. After cultivation for 8 days under controlled conditions in a glasshouse (at 24/16° C., day/night; 14 hours light; 65% humidity), the plants were sprayed with an aqueous spray solution derived from the formulation of the technical active ingredient in acetone/water (50:50) solution containing 0.5% Tween 20 (polyoxyethylene sorbitan monolaurate, CAS RN 9005-64-5) to give a final dose of 15.625, 62.5 or 250 g/ha of test compound.
(§2) The test plants were then grown on under controlled conditions in a glasshouse (at 24/16° C., day/night; 14 hours light; 65% humidity) and watered twice daily. After 13 days the test was evaluated (100=total damage to plant; 0=no damage to plant). A dash (-) means no test result.

[2] = test system: ivy-leaved morning glory (Ipomoea hederacea); assay: Test G Post-Emergence Protocol; conditions: Ipomoea, post-emergence, 312 h; for pest or weed control at 15.625 g/ha: 15.625 g ai/ha, evaluated after 13 days (100=total damage to plant; 0=no damage to plant), read-out: Morningglory, Ivy-leaved damage rating; for pest or weed control at 62.5 g/ha: 62.5 g ai/ha, read-out: Morningglory, Ivy-leaved damage rating (100=total damage to plant; 0=no damage to plant); for pest or weed control at 62.5 g/ha / pest or weed control at 250 g/ha: evaluated after 13 days; for pest or weed control at 250 g/ha: 250 g ai/ha, read-out: damage to plant, Morningglory, Ivy-leaved (100=total damage to plant; 0=no damage to plant)
Description: as §1, §2

[3] = test system: velvetleaf (Abutilon theophrasti); assay: Test G Post-Emergence Protocol; conditions: Abutilon theophrasti, post-emergence, 312 h; for pest or weed control at 15.625 g/ha: 15.625 g ai/ha, evaluated after 13 days (100=total damage to plant; 0=no damage to plant), read-out: Velvetleaf damage rating; for pest or weed control at 62.5 g/ha: 62.5 g ai/ha, read-out: Velvetleaf damage rating (100=total damage to plant; 0=no damage to plant); for pest or weed control at 62.5 g/ha / pest or weed control at 250 g/ha: evaluated after 13 days; for pest or weed control at 250 g/ha: 250 g ai/ha, read-out: damage to plant, Velvetleaf (100=total damage to plant; 0=no damage to plant)
Description: as §1, §2

[4] = test system: redroot pigweed (Amaranthus retroflexus); assay: Test G Post-Emergence Protocol; conditions: Amaranthus retroflexus, post-emergence, 312 h; for pest or weed control at 15.625 g/ha: 15.625 g ai/ha, evaluated after 13 days (100=total damage to plant; 0=no damage to plant), read-out: Pigweed, Redroot damage rating; for pest or weed control at 62.5 g/ha: 62.5 g ai/ha, read-out: Pigweed, Redroot damage rating (100=total damage to plant; 0=no damage to plant); for pest or weed control at 62.5 g/ha / pest or weed control at 250 g/ha: evaluated after 13 days; for pest or weed control at 250 g/ha: 250 g ai/ha, read-out: damage to plant, Pigweed, Redroot (100=total damage to plant; 0=no damage to plant)
Description: as §1, §2

[5] = test system: corn (Zea mays); assay: Test G Post-Emergence Protocol; conditions: Zea mays, post-emergence, 312 h; for plant injury at 15.625 g/ha: 15.625 g ai/ha, evaluated after 13 days (100=total damage to plant; 0=no damage to plant), read-out: Corn damage rating; for plant injury at 62.5 g/ha: 62.5 g ai/ha, read-out: Corn damage rating (100=total damage to plant; 0=no damage to plant); for plant injury at 62.5 g/ha / plant injury at 250 g/ha: evaluated after 13 days; for plant injury at 250 g/ha: 250 g ai/ha, read-out: damage to plant, Corn (100=total damage to plant; 0=no damage to plant)
Description: as §1, §2

[6] = test system: barnyardgrass (Echinochloa crus-galli); assay: Test G Post-Emergence Protocol; conditions: Echinochloa crus-galli, post-emergence, 312 h; for pest or weed control at 15.625 g/ha: 15.625 g ai/ha, evaluated after 13 days (100=total damage to plant; 0=no damage to plant), read-out: Barnyardgrass damage rating; for pest or weed control at 62.5 g/ha: 62.5 g ai/ha, read-out: Barnyardgrass damage rating (100=total damage to plant; 0=no damage to plant); for pest or weed control at 62.5 g/ha / pest or weed control at 250 g/ha: evaluated after 13 days; for pest or weed control at 250 g/ha: 250 g ai/ha, read-out: damage to plant, Barnyardgrass (100=total damage to plant; 0=no damage to plant)
Description: as §1, §2

[7] = test system: giant foxtail (Setaria faberi); assay: Test G Pre-Emergence Protocol; conditions: Setaria faberi, pre-emergence, 312 h, evaluated after 13 days; for pest or weed control at 15.625 g/ha: 15.625 g ai/ha; for pest or weed control at 15.625 g/ha / pest or weed control at 250 g/ha: read-out: Foxtail, Giant damage rating (100=total damage to plant; 0=no damage to plant); for pest or weed control at 62.5 g/ha: 62.5 g ai/ha, 100=total damage to plant, 0=no damage to plant, read-out: plant damage rating, Foxtail, Giant; for pest or weed control at 250 g/ha: 250 g ai/ha
How it was run: (§3)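 Herbicidal effect was rated 13 days post-application on a scale where 100 equals total damage. Spraying took place the day after sowing, using 15.625, 62.5 or 250 g/ha of compound in a 50:50 acetone/water solution with 0.5% Tween 20.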

[8] = test system: ivy-leaved morning glory (Ipomoea hederacea); assay: Test G Pre-Emergence Protocol; conditions: Ipomoea, pre-emergence, 312 h, evaluated after 13 days; for pest or weed control at 15.625 g/ha: 15.625 g ai/ha, read-out: Morning-glory, Ivy-leaved damage rating (100=total damage to plant; 0=no damage to plant); for pest or weed control at 62.5 g/ha: 62.5 g ai/ha, 100=total damage to plant, 0=no damage to plant, read-out: plant damage rating, Morningglory, Ivy-leaved; for pest or weed control at 250 g/ha: 250 g ai/ha, read-out: Morningglory, Ivy-leaved damage rating (100=total damage to plant; 0=no damage to plant)
How it was run: as §3

[9] = test system: velvetleaf (Abutilon theophrasti); assay: Test G Pre-Emergence Protocol; conditions: Abutilon theophrasti, pre-emergence, 312 h, evaluated after 13 days; for pest or weed control at 15.625 g/ha: 15.625 g ai/ha; for pest or weed control at 15.625 g/ha / pest or weed control at 250 g/ha: read-out: Velvetleaf damage rating (100=total damage to plant; 0=no damage to plant); for pest or weed control at 62.5 g/ha: 62.5 g ai/ha, 100=total damage to plant, 0=no damage to plant, read-out: plant damage rating, Velvetleaf; for pest or weed control at 250 g/ha: 250 g ai/ha
How it was run: as §3

[10] = test system: redroot pigweed (Amaranthus retroflexus); assay: Test G Pre-Emergence Protocol; conditions: Amaranthus retroflexus, pre-emergence, 312 h, evaluated after 13 days; for pest or weed control at 15.625 g/ha: 15.625 g ai/ha; for pest or weed control at 15.625 g/ha / pest or weed control at 250 g/ha: read-out: Pigweed, Redroot damage rating (100=total damage to plant; 0=no damage to plant); for pest or weed control at 62.5 g/ha: 62.5 g ai/ha, 100=total damage to plant, 0=no damage to plant, read-out: plant damage rating, Pigweed, Redroot; for pest or weed control at 250 g/ha: 250 g ai/ha
How it was run: as §3

[11] = test system: corn (Zea mays); assay: Test G Pre-Emergence Protocol; conditions: Zea mays, pre-emergence, 312 h, evaluated after 13 days; for plant injury at 15.625 g/ha: 15.625 g ai/ha; for plant injury at 15.625 g/ha / plant injury at 250 g/ha: read-out: Corn damage rating (100=total damage to plant; 0=no damage to plant); for plant injury at 62.5 g/ha: 62.5 g ai/ha, 100=total damage to plant, 0=no damage to plant, read-out: plant damage rating, Corn; for plant injury at 250 g/ha: 250 g ai/ha
How it was run: as §3

[12] = test system: barnyardgrass (Echinochloa crus-galli); assay: Test G Pre-Emergence Protocol; conditions: Echinochloa crus-galli, pre-emergence, 312 h, evaluated after 13 days; for pest or weed control at 15.625 g/ha: 15.625 g ai/ha, read-out: Barnyard grass damage rating (100=total damage to plant; 0=no damage to plant); for pest or weed control at 62.5 g/ha: 62.5 g ai/ha, 100=total damage to plant, 0=no damage to plant, read-out: plant damage rating, Barnyardgrass; for pest or weed control at 250 g/ha: 250 g ai/ha, read-out: Barnyardgrass damage rating (100=total damage to plant; 0=no damage to plant)
How it was run: as §3

For `CN1C[C@H](c2ccc(C(F)(F)F)cc2)[C@@H](C(=O)Nc2ccc(F)cc2[N+](=O)[O-])C1=O` (racemic) [Compound 1425], the pest or weed control at 15.625 g/ha [1] was 10%, the pest or weed control at 62.5 g/ha [1] was 40% and the pest or weed control at 250 g/ha [1] was 50%. The pest or weed control at 15.625 g/ha [2] was 0%, the pest or weed control at 62.5 g/ha [2] was 0% and the pest or weed control at 250 g/ha [2] was 0%. It also gave a pest or weed control at 15.625 g/ha [3] of 0%, a pest or weed control at 62.5 g/ha [3] of 0% and a pest or weed control at 250 g/ha [3] of 0%. It also gave a pest or weed control at 15.625 g/ha [4] of 20%, a pest or weed control at 62.5 g/ha [4] of 30% and a pest or weed control at 250 g/ha [4] of 40%. It also gave a plant injury at 15.625 g/ha [5] of 10%, a plant injury at 62.5 g/ha [5] of 10% and a plant injury at 250 g/ha [5] of 10%. It also gave a pest or weed control at 15.625 g/ha [6] of 0%, a pest or weed control at 62.5 g/ha [6] of 20% and a pest or weed control at 250 g/ha [6] of 20%. The pest or weed control at 15.625 g/ha [7] was 10%, the pest or weed control at 62.5 g/ha [7] was 80% and the pest or weed control at 250 g/ha [7] was 80%. The pest or weed control at 15.625 g/ha [8] was 0%, the pest or weed control at 62.5 g/ha [8] was 0% and the pest or weed control at 250 g/ha [8] was 0%. It also gave a pest or weed control at 15.625 g/ha [9] of 0%, a pest or weed control at 62.5 g/ha [9] of 0% and a pest or weed control at 250 g/ha [9] of 0%. It also gave a pest or weed control at 15.625 g/ha [10] of 0%, a pest or weed control at 62.5 g/ha [10] of 0% and a pest or weed control at 250 g/ha [10] of 0%. The plant injury at 15.625 g/ha [11] was 0%, the plant injury at 62.5 g/ha [11] was 0% and the plant injury at 250 g/ha [11] was 0%. It also gave a pest or weed control at 15.625 g/ha [12] of 0%, a pest or weed control at 62.5 g/ha [12] of 40% and a pest or weed control at 250 g/ha [12] of 60%.

`CN1C[C@H](c2ccc(C(F)(F)F)cc2)[C@@H](C(=O)Nc2ccc(C(F)(F)F)cc2F)C1=O` (racemic) [Compound 1426] gave a pest or weed control at 15.625 g/ha [1] of 0%, a pest or weed control at 62.5 g/ha [1] of 0% and a pest or weed control at 250 g/ha [1] of 40%. The pest or weed control at 15.625 g/ha [2] was 0%, the pest or weed control at 62.5 g/ha [2] was 0% and the pest or weed control at 250 g/ha [2] was 0%. For the same compound, the pest or weed control at 15.625 g/ha [3] was 0%, the pest or weed control at 62.5 g/ha [3] was 0% and the pest or weed control at 250 g/ha [3] was 0%. The pest or weed control at 15.625 g/ha [4] was 0%, the pest or weed control at 62.5 g/ha [4] was 10% and the pest or weed control at 250 g/ha [4] was 10%. It also gave a plant injury at 15.625 g/ha [5] of 10%, a plant injury at 62.5 g/ha [5] of 0% and a plant injury at 250 g/ha [5] of 10%. It also gave a pest or weed control at 15.625 g/ha [6] of 0%, a pest or weed control at 62.5 g/ha [6] of 0% and a pest or weed control at 250 g/ha [6] of 20%. The pest or weed control at 15.625 g/ha [7] was 0%, the pest or weed control at 62.5 g/ha [7] was 50% and the pest or weed control at 250 g/ha [7] was 70%. For the same compound, the pest or weed control at 15.625 g/ha [8] was 0%, the pest or weed control at 62.5 g/ha [8] was 0% and the pest or weed control at 250 g/ha [8] was 0%. The pest or weed control at 15.625 g/ha [9] was 0%, the pest or weed control at 62.5 g/ha [9] was 0% and the pest or weed control at 250 g/ha [9] was 0%. For the same compound, the pest or weed control at 15.625 g/ha [10] was 0%, the pest or weed control at 62.5 g/ha [10] was 0% and the pest or weed control at 250 g/ha [10] was 0%. It also gave a plant injury at 15.625 g/ha [11] of 0%, a plant injury at 62.5 g/ha [11] of 0% and a plant injury at 250 g/ha [11] of 0%. It also gave a pest or weed control at 15.625 g/ha [12] of 0%, a pest or weed control at 62.5 g/ha [12] of 10% and a pest or weed control at 250 g/ha [12] of 20%.
